Like-named read-outs stand apart in the source and are kept apart here.
Legend:
[1] = Plasma oxytocin concentration by radioimmunoassay after 40 IU intranasal (spray or nebuliser) or 10 IU intravenous oxytocin; assay type: in vivo, human; settings: for level at 0.95 h: male, human, 57 minutes post-administration (from last treatment offset), read-out: Concentration of plasmatic oxytocin
Description: We employed a double-blind, placebo-controlled, triple-dummy, crossover design. Participants visited our centre for 4 experimental sessions spaced 8.90 days apart on average (SD = 5.65, range: 5–28 days). In each session, participants received treatment via all three administration routes, in one of two fixed sequences: either nebuliser/intravenous infusion/standard nasal spray, or standard nasal spray/intravenous infusion/nebuliser, according to the treatment administration scheme presented in Fig. 8 (upper panel). In three out of four sessions only one route of administration contained the active drug; in the fourth session, all routes delivered placebo or saline. Participants were randomly allocated to a treatment order (i.e. a specific plan regarding which route delivered the active drug in each experimental session) that was determined using a Latin square design. Unbeknown to the participants, the first treatment administration method in each session always contained placebo (see Fig. 8, upper panel), while intranasal (spray or nebuliser) oxytocin was only delivered with the third treatment administration. This protocol maintained double-blinding while avoiding the potential washing-out of intranasally deposited oxytocin (as might have been the case if oxytocin had been administered at the first treatment administration point and placebo at the third administration point). All sessions were conducted during the morning to minimise potential circadian variability in resting brain activity[79] or oxytocin levels.
For the intranasal administrations, participants self-administered a nominal dose of 40 IU oxytocin (Syntocinon; 40 IU/ml; Novartis, Basel, Switzerland), one of the highest clinically applicable doses[81] that would insure that lack of effects on the brain are unlikely to result from under-dosing. We have shown that 40 IU delivered with a standard nasal spray induce robust rCBF changes in two different cohorts of healthy men using between-[12] and within-subjects[11] designs. Work from others have also reported this dose to modulate resting functional connectivity[19],[82]. For the intranasal administration, we used specially manufactured placebo that contained the same excipients as Syntocinon except for oxytocin. Participants self-administered intranasal oxytocin or placebo with the nasal spray or nebuliser following under the supervision of the lead experimenter who ensured the correct application of the devices. Additionally, all participants had been trained during the screening visit in the correct administration procedures.
Participants followed our standard in-house protocol that we have used consistently across all of our studies and is consistent with the guidelines outlined by Guastella et al. (2013)[83]. […] Participants blocked opposite nostril while administering each puff, and each puff was followed by an immediate, brief, sharp, snort.
Participants self-administered 40 IU oxytocin (Syntocinon) or placebo, by operating the SINUS nebulizer for 3 min in each nostril (6 min in total), according to instructions. The correct application of the device was confirmed by determining gravimetrically the administered volume. Participants were instructed to breathe using only their mouth and to keep a constant breathing rate with their soft palate closed, to minimize delivery to the lungs. Previous studies using this nebuliser[34] have shown up to 9.0% (±1.9%) of the total administered dose to be delivered to the olfactory region, 15.7% (±2.4%) to the upper nose.
For the intravenous administration, we delivered 10 IU oxytocin (Syntocinon injection formulation, 10 IU/ml, Alliance, UK) or saline via slow infusion over 10 min (1IU/min). A 50-ml syringe was loaded with either 32 ml of 0.9% sodium chloride (placebo) or 30 ml of 0.9% sodium chloride with […] of Syntocinon (10 IU/ml). […]

[2] = tested on: human functional connectome at rest; test: Resting-state BOLD-fMRI, graph theory: node degree (mesoscale); same doses, time and cohort; assay type: in vivo; settings: post-hoc paired t-tests, FDR
Method: Each experimental session began with the treatment administration protocol that lasted about 22 min in total (Fig. 8, lower panel). After drug administration, participants were guided to the MRI scanner, where eight pulsed continuous arterial spin labelling scans (each lasting approx. eight minutes) were acquired, spanning 15–104 min post-dosing (data reported elsewhere[11]). The 8-min resting state BOLD-fMRI scan reported herein was obtained at about 57 ± 3.38 min post-dosing. Participants were instructed to lie still and maintain their gaze on a centrally placed fixation cross during scanning. We assessed participants’ levels of alertness (anchors: alert-drowsy) and excitement (anchors: excited-calm) using visual analogue scales (0–100) at three different time-points during the scanning session to evaluate subjective drug effects across time (data reported elsewhere[11]).
We used the CONN functional connectivity toolbox[97] to generate brain-wide functional connectivity matrices for each subject/session. […] The default atlas of the CONN toolbox includes 132 non-overlapping ROIs spanning cortical and subcortical areas and the cerebellum using a combination of the cortical and subcortical areas from the FSL Harvard-Oxford atlas and of the cerebellar areas of the Automatic Anatomical Labelling atlas (Supplementary data 1 for a detailed description). […] Finally, we normalized our correlation measures to z-scores using the Fisher’s r-z transform per subject/session.
We then used our z-transformed connectivity matrices to construct brain graphs representing a functional connectivity network for each subject/session. We used an undirected signed weighted approach in which we kept information about the sign and weight of each of the connections between the nodes (ROIs) of our network, without making assumptions about the direction of this relationship. These connectivity matrices represent fully connected networks, where each node corresponds to each of the ROIs we used to build the functional connectivity matrices and each edge represents the z-transformed value of functional connectivity between a pair of nodes. […] We used the fully weighted networks to calculate equi-sparse networks by retaining a fixed percentage (K) of the total amount of possible edges. […]
For each of the graph metrics analysed, we summarized the different values over the range of thresholds using the area under the curve (AUC), instead of applying multiple testing for each metric/threshold. […]

## CC[C@H](C)[C@@H]1NC(=O)[C@H](Cc2ccc(O)cc2)NC(=O)[C@@H](N)CSSC[C@@H](C(=O)N2CCC[C@H]2C(=O)N[C@@H](CC(C)C)C(=O)NCC(N)=O)NC(=O)[C@H](CC(N)=O)NC(=O)[C@H](CCC(N)=O)NC1=O [oxytocin]
[1]; 57 min post-administration, all pTukey < 0.010
  Plasmatic oxytocin concentrations at post-administration, intravenous versus other conditions: higher in the intravenous condition than in all the other three treatment conditions
[1]; 57 min post-administration, pTukey = 1.000
  Plasma oxytocin concentrations, spray versus nebuliser: did not differ
[1]; Intranasal (spray, nebuliser) and intravenous administrations, all pTukey < 0.010
  Plasma oxytocin concentration at 57 min post-administration compared to baseline: increased plasma oxytocin concentration
[1]; Nebuliser (40 IU intranasal, PARI SINUS nebuliser), 57 minutes post-administration, plasma, radioimmunoassay after extraction, mean, n = 16 healthy men
  Concentration of plasmatic oxytocin: 7.207 pg/mL
[1]; inhaled or intranasal, Spray (40 IU intranasal, standard nasal spray), plasma, radioimmunoassay after extraction, mean, n = 16 healthy men
  level at 0.95 h: 7.03 pg/mL
[1]; Intravenous (10 IU infusion over 10 min, 1IU/min), plasma, radioimmunoassay after extraction, mean, n = 16 healthy men
  level at 0.95 h: 16.4 pg/mL
[2]; intravenous, 10 IU
  Nodes with decreased node degree compared to placebo: decreased the node degree of the precuneus and right temporal pole
[2]; nebuliser, 40 IU intranasal
  Nodes with increased node degree compared to placebo: increased the node degree of the left posterior superior temporal gyrus and left cerebellum (area 7)
[2]; spray, 40 IU intranasal
  Nodes with decreased node degree compared to placebo: decreased the node degree of the right posterior inferior temporal gyrus
  Nodes with increased node degree compared to placebo: increased node degree of the brainstem, left cerebellum (area 1) and right intracalcarine cortex

From PMC7811009, “Oxytocin modulates local topography of human functional connectome in healthy men at rest” (Communications Biology, 2021)
